According to ChEMBL document CHEMBL1157332, “Neuroprotective bibenzyl glycosides of Stemona tuberosa roots” (2006):

Legend:
SH-SY5Y [1] = assay: Neuroprotective effect against 6-OHDA-induced neurotoxicity in human SH-SY5Y cells at 1 uM treated 1 hr before 6-OHDA injury after 24 hrs by MTT assay relative to control; assay type: functional
SH-SY5Y [2] = assay: Neuroprotective effect against 6-OHDA-induced neurotoxicity in human SH-SY5Y cells at 0.1 uM treated 1 hr before 6-OHDA injury after 24 hrs by MTT assay relative to control; assay type: functional

Question: How did the Activity (SH-SY5Y [1]) turn out when `COc1cc(OC)cc(C(O[C@@H]2O[C@H](CO)[C@@H](O)[C@H](O)[C@H]2O)C(O)c2ccccc2)c1` (stereo partly drawn) was run?
Answer: 97.3%

Question: What about the Activity (SH-SY5Y [2]) of the same molecule?
Answer: 29.5%

Question: Which Activity (SH-SY5Y [1]) does the source give for `Cc1c(O)cc(CCc2ccccc2)cc1O[C@@H]1O[C@H](CO)[C@@H](O)[C@H](O)[C@H]1O` here?
Answer: 72.4%

Question: And the Activity (SH-SY5Y [2])?
Answer: 50.9%

Question: For `COc1ccc(CCc2cc(O)c(C)c(O[C@@H]3O[C@H](CO)[C@@H](O)[C@H](O)[C@H]3O)c2)cc1`, which Activity (SH-SY5Y [1]) is on record?
Answer: 65.6%

Question: What about the Activity (SH-SY5Y [2]) of the same molecule?
Answer: 31%

Question: For `O=C(O[C@@H]1Cc2c(O)cc(O)cc2O[C@@H]1c1cc(O)c(O)c(O)c1)c1cc(O)c(O)c(O)c1` [EPIGALOCATECHIN GALLATE], which Activity (SH-SY5Y [1]) is on record?
Answer: 42.2%

Question: And the Activity (SH-SY5Y [2])?
Answer: 20.1%
